{
  "source": "patent US4582822A",
  "about": "“Antibiotic A80190, pharmaceutical compositions containing same and method of use” (Eli Lilly and Company, priority 1984, dated 1986)",
  "key": {"A. macra": {"test_system": "A. macra", "assay": "Resistance to antibiotics, sensitivity discs on seeded agar", "assay_type": "cell-based, Actinomadura macra", "protocol": "(§1) Resistance to antibiotics was measured by padding antibiotic sensitivity discs onto the surface of seeded ISP No. 2 agar plates.\n(§2) Table III lists the resistance of the strain to various antibiotics at the concentrations indicated and compares it to that of A. macra."}, "NRRL 15878": {"test_system": "NRRL 15878", "assay": "Resistance to antibiotics, sensitivity discs on seeded agar", "assay_type": "cell-based, Actinomadura oligospora", "protocol": "as §1, §2"}},
  "note": "Where a SMILES comes first, the peptide text is derived from it. Bridges are numbered along the chain shown (N, C = ends). [ ]: non-standard residue; d: D form. The star is where a group is joined. Ileψ(thiazoline)Cys = CC[C@H](C)[C@H](N)C1=N[C@H](C(=O)*)CS1; dOrn = NCCC[C@@H](N)C(=O)O",
  "data": [
    {"molecule": "CC(=O)OCC1=C(C(=O)O)N2C(=O)[C@@H](NC(=O)Cc3cccs3)[C@H]2SC1", "note": "[Cephalothin]", "values": [
      {"measurement": "Resistance to Antibiotics", "setting": "A. macra; 30 μg", "value": "+"}
    ]},
    {"molecule": "Tetracycline", "values": [
      {"measurement": "Resistance to Antibiotics", "setting": "NRRL 15878; 30 μg", "value": "-"},
      {"measurement": "Resistance to Antibiotics", "setting": "A. macra; 30 μg", "value": "-"}
    ]},
    {"molecule": "Gentamicin", "values": [
      {"measurement": "Resistance to Antibiotics", "setting": "NRRL 15878; 10 μg", "value": "-"},
      {"measurement": "Resistance to Antibiotics", "setting": "A. macra; 10 μg", "value": "-"}
    ]},
    {"molecule": "CC1(C)S[C@@H]2[C@H](NC(=O)Cc3ccccc3)C(=O)N2[C@H]1C(=O)O", "note": "[Pencillin G]", "values": [
      {"measurement": "Resistance to Antibiotics", "setting": "NRRL 15878; 10 units", "value": "+"},
      {"measurement": "Resistance to Antibiotics", "setting": "A. macra; 10 units", "value": "+"}
    ]},
    {"molecule": "CO[C@H]1/C=C/O[C@@]2(C)Oc3c(C)c(O)c4c(O)c(c(/C=N/N5CCN(C)CC5)c(O)c4c3C2=O)NC(=O)/C(C)=C\\C=C\\[C@H](C)[C@H](O)[C@@H](C)[C@@H](O)[C@@H](C)[C@H](OC(C)=O)[C@@H]1C", "note": "[Rifampin]", "values": [
      {"measurement": "Resistance to Antibiotics", "setting": "A. macra; 5 μg", "value": "+"}
    ]},
    {"molecule": "CC[C@H](C)[C@H](N)C1=N[C@H](C(=O)N[C@@H](CC(C)C)C(=O)N[C@H](CCC(=O)O)C(=O)N[C@H](C(=O)N[C@H]2CCCCNC(=O)[C@H](CC(N)=O)NC(=O)[C@@H](CC(=O)O)NC(=O)[C@H](Cc3cnc[nH]3)NC(=O)[C@@H](Cc3ccccc3)NC(=O)[C@H]([C@@H](C)CC)NC(=O)[C@@H](CCCN)NC2=O)[C@@H](C)CC)CS1", "note": "[Bacitracin] ({Ileψ(thiazoline)Cys}-L[dE]IK[dOrn]I[dF]H[dD]N; lactam 4-C)", "values": [
      {"measurement": "Resistance to Antibiotics", "setting": "NRRL 15878; 10 units", "value": "+"},
      {"measurement": "Resistance to Antibiotics", "setting": "A. macra; 10 units", "value": "-"}
    ]},
    {"molecule": "CN[C@H](CC(C)C)C(=O)N[C@H]1C(=O)N[C@@H](CC(N)=O)C(=O)N[C@H]2C(=O)N[C@H]3C(=O)N[C@H](C(=O)N[C@H](C(=O)O)c4cc(O)cc(O)c4-c4cc3ccc4O)[C@H](O)c3ccc(c(Cl)c3)Oc3cc2cc(c3O[C@@H]2O[C@H](CO)[C@@H](O)[C@H](O)[C@H]2O[C@H]2C[C@](C)(N)[C@H](O)[C@H](C)O2)Oc2ccc(cc2Cl)[C@H]1O", "note": "[Vancomycin]", "values": [
      {"measurement": "Resistance to Antibiotics", "setting": "NRRL 15878; 30 μg", "value": "-"},
      {"measurement": "Resistance to Antibiotics", "setting": "A. macra; 30 μg", "value": "-"}
    ]},
    {"molecule": "CN[C@@H]1[C@H](O[C@H]2[C@H](O[C@H]3[C@H](O)[C@@H](O)[C@H](N=C(N)N)[C@@H](O)[C@@H]3N=C(N)N)O[C@@H](C)[C@]2(O)C=O)O[C@@H](CO)[C@H](O)[C@H]1O", "note": "[Streptocmycin]", "values": [
      {"measurement": "Resistance to Antibiotics", "setting": "NRRL 15878; 10 μg", "value": "-"},
      {"measurement": "Resistance to Antibiotics", "setting": "A. macra; 10 μg", "value": "+"}
    ]}
  ]
}
